Measurements as given in ChEMBL document CHEMBL1128729, “Alpha- and beta-adrenoceptors: from the gene to the clinic. 2. Structure-activity relationships and therapeutic applications” (J Med Chem, 1995).

Key:
[1] = Effective concentration for inhibition of neurotransmission in field-stimulated, reserpine-pretreated guinea pig ileum.; format: functional, tissue-based
[2] = target: T1, Adrenergic receptor alpha-1 (Rattus norvegicus, UniProt P15823+P23944+P43140); assay: Effective dose for contraction of reserpine-pretreated rat vas deferens.; format: functional
T1 sequence (P15823 whole entry): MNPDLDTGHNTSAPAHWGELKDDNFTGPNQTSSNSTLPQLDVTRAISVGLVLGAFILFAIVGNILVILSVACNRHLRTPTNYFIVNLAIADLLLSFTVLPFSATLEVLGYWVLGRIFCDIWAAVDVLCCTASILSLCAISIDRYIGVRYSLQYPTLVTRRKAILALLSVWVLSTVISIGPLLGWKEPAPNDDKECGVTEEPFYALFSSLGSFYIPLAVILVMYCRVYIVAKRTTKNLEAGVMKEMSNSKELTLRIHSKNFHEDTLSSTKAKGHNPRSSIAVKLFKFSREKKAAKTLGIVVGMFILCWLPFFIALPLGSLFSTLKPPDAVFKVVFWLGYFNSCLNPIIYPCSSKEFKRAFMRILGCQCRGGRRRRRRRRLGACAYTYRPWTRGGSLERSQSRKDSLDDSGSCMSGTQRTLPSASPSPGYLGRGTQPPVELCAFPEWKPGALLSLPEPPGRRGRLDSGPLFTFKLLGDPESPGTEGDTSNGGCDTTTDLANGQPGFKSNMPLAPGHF
T1 sequence (P23944 whole entry): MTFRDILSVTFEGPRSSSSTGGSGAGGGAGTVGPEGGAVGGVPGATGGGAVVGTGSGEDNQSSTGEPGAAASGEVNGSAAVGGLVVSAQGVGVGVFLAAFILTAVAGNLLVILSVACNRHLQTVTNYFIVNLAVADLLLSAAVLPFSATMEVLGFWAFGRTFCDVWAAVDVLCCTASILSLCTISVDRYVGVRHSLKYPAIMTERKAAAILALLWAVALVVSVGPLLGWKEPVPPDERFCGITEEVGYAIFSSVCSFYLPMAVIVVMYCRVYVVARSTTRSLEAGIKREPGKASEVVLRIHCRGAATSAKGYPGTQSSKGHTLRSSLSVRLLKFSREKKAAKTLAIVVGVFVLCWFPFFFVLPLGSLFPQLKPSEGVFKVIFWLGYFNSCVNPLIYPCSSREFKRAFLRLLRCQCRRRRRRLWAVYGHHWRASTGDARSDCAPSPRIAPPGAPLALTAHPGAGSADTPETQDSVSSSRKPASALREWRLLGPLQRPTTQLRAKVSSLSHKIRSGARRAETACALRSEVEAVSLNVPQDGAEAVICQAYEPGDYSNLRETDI
T1 sequence (P43140 whole entry): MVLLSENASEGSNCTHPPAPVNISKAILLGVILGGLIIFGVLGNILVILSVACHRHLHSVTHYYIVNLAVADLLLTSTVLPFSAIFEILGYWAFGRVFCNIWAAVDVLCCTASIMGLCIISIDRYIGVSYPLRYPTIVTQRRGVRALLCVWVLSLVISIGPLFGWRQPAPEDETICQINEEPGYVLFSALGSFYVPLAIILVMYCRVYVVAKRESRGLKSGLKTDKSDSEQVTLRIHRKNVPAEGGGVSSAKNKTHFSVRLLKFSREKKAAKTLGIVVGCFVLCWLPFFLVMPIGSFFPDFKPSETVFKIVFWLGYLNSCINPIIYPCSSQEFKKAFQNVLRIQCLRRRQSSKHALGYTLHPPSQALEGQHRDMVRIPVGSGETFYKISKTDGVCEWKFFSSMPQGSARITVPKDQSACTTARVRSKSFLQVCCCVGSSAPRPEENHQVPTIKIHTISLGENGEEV

[3] = Activity for Alpha-1 adrenergic receptor was assessed from effect on contraction of reserpine-pretreated guinea pig ileum; format: functional, tissue-based
[4] = Activity for Alpha-1 adrenergic receptor was assessed from effect on inhibition of neurotransmission in field-stimulated, reserpine-pretreated guinea pig ileum.; format: functional, tissue-based
Nischarin = Nischarin (Homo sapiens, UniProt Q9Y2I1); assay: Binding affinity for imidazoline receptor I-1
Nischarin, sequence (Q9Y2I1 whole entry): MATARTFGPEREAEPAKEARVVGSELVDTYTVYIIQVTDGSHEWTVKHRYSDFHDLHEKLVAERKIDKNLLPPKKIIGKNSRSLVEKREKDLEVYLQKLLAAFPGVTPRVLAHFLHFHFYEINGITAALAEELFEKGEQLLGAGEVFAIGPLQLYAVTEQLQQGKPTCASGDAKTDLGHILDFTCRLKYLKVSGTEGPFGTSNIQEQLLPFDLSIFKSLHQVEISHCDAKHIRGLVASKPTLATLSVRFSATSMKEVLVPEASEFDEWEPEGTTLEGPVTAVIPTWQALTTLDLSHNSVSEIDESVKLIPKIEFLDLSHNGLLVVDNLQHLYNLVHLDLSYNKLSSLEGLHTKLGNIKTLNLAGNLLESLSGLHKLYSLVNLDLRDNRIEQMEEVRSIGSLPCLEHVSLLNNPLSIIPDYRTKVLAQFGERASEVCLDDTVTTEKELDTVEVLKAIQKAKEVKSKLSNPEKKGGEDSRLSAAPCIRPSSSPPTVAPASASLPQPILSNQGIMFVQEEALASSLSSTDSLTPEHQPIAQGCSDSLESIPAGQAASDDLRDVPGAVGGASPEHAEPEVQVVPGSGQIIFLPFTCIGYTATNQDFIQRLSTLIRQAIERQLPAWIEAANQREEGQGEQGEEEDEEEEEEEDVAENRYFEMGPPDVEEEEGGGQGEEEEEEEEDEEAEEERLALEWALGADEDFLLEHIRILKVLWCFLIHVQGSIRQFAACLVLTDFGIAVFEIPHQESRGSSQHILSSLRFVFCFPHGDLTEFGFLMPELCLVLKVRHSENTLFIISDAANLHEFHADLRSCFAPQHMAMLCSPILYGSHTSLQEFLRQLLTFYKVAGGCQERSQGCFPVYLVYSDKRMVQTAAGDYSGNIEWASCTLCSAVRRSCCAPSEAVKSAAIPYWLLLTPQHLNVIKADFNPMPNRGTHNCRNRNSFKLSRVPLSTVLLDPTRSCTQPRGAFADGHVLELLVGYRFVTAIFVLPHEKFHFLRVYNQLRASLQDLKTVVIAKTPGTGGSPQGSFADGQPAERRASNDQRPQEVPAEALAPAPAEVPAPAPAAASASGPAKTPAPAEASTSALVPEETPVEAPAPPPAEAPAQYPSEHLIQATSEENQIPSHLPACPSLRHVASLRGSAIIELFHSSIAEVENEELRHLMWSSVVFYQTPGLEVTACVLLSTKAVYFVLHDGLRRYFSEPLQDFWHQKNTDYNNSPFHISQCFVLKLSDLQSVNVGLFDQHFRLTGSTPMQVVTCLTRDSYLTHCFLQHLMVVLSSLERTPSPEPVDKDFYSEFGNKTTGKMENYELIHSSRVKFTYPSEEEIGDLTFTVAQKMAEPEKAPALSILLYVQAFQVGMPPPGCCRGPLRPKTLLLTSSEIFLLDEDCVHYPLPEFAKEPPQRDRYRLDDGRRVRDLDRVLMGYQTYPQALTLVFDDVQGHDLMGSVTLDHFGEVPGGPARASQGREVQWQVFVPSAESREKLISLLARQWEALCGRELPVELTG

Monoamine oxidase = target: T2, Monoamine oxidase (Homo sapiens, UniProt P21397+P27338); assay: Binding affinity for imidazoline receptor I-2; format: protein assay
T2 sequence (P21397 whole entry): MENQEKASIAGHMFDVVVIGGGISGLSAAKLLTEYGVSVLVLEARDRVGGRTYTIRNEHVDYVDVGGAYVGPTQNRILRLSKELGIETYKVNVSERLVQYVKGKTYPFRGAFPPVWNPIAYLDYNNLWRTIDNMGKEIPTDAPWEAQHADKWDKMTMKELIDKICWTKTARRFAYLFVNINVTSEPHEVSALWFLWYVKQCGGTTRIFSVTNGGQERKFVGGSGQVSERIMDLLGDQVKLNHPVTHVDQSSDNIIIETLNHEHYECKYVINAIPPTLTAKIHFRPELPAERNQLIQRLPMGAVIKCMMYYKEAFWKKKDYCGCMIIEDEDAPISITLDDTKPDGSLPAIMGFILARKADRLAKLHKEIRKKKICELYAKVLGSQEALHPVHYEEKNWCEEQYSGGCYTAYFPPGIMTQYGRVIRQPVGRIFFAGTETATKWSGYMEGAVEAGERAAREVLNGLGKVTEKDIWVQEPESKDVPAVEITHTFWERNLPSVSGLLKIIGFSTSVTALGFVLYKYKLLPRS
T2 sequence (P27338 whole entry): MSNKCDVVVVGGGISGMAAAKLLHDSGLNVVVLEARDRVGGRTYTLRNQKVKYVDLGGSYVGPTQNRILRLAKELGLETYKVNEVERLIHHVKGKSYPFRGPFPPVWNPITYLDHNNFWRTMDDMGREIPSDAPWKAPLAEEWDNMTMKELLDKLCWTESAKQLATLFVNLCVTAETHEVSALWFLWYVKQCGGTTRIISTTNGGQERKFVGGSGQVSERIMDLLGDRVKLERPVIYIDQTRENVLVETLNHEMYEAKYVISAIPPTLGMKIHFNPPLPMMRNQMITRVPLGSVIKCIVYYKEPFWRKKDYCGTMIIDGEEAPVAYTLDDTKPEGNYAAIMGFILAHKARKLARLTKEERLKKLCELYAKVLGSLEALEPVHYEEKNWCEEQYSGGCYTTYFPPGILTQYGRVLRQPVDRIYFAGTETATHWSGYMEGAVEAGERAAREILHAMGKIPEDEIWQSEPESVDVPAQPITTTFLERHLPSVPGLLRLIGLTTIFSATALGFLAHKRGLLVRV

[5] = Effective dose for contraction of reserpine-pretreated guinea pig aorta.; format: functional, tissue-based
[6] = Effective dose for inhibition of neurotransmission in field-stimulated, reserpine-pretreated guinea pig ileum.; format: functional, tissue-based
[7] = Effective dose for contraction of rabbit aorta.; format: functional, tissue-based
[8] = target: Beta-2 adrenergic receptor (Cavia porcellus, UniProt Q8K4Z4); assay: Activity for Beta-2 adrenergic receptor was assessed from effect on relaxation of guinea pig trachea.; format: functional
Beta-2 adrenergic receptor, sequence (Q8K4Z4 whole entry): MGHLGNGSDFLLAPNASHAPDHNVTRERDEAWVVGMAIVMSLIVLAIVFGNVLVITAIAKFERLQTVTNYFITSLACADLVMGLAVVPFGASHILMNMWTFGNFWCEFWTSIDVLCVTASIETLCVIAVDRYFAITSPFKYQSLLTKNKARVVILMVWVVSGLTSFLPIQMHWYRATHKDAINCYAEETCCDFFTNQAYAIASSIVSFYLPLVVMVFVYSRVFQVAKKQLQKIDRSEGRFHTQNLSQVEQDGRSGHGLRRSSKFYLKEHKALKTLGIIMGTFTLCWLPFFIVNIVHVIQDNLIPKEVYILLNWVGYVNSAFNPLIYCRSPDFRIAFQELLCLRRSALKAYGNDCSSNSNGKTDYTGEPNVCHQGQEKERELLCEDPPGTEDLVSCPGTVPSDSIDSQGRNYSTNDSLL

[9] = Effective dose for compound on contraction of reserpine-pretreated guinea pig aorta.; format: functional, tissue-based
[10] = Effective dose for on contraction of rabbit aorta.; format: functional, tissue-based

In the case of C[C@H](N)[C@H](O)c1ccc(O)c(O)c1 [LEVONORDEFRIN], the EC50 [1] is reported as 19 nM and the EC50 [2] is reported as 776 nM.

With C[C@@H](N)[C@@H](O)c1ccc(O)c(O)c1 the EC50 [3] was 46800 nM and the EC50 [4] was 10000 nM.

For Clc1cccc(Cl)c1NC1=NCCN1 [CLONIDINE], the Ki (Nischarin) was < 10 nM and the Ki (Monoamine oxidase) was > 100 nM.

Work on NC[C@H](O)c1ccc(O)c(O)c1 [NOREPINEPHRINE] yielded an EC50 [5] of 112 nM, an EC50 [6] of 30 nM and an EC50 [7] of 6.6 nM. It also gave an EC50 [8] of 213 nM.

Work on NCC(O)c1ccc(O)c(O)c1 (single isomer, unassigned) [NOREPINEPHRINE] yielded an EC50 [1] of 14500 nM, an EC50 [9] of 12000 nM and an EC50 [10] of 2000 nM. It also gave an EC50 [8] of 30000 nM.
